These are literature values, as cited in patent US20110313040A1, “ORGANIC NUTRIENT SALTS, METHODS OF PREPARATION AND USES” (BELLUS HEALTH INC., priority 2008, published 2011).

The conditions of this data set: in vivo.

SMILES strings stand for the structures.

As for `NCCCS(=O)(=O)[O-].[Na+]` [sodium salt of homotaurine], the “stomach and gastrointestinal tolerance” value was “caused stomach and gastrointestinal intolerance (e.g. nausea, vomiting)”.
